Counter-ions that a name gives are not always drawn.
Legend:
[1] = system: phenylquinone-induced writhing in mice; assay: Anti-nociceptive activity in phenylquinone-induced writhing test in mice; format: in vivo, mouse (male NMRI); settings: Mus musculus, iv, 10 min; i.v., phenylquinone i.p. 10 min after compound, writhing counted 5-20 min after phenylquinone; 10 animals per dose; 95% confidence range in parentheses
Protocol: The anti-nociceptive effectiveness was tested in phenylquinone-induced writhing in mice, modified by I. C.Hendershot, J. Forsaith, J. Pharmacol. Exp. Ther. 125, 237-240 (1959). Here, male NMRI mice with a weight of 25-30 g were used. 10 min after intravenous administration of a compound according to the invention, 0.3 ml/mouse of a 0.02% strength aqueous solution of phenylquinone was administered intraperitoneally to groups of 10 animals per substance dose (phenylbenzoquinone, Sigma, Deisenhofen; solution prepared by adding 5% ethanol and storing in a water bath at 45° C.). The animals were placed individually in observation cages. Using a push button counter,the number of pain-induced stretching movements (so-called writhing reactions=straightening the body while stretching out the back extremities) was counted 5-20 min after administration of the phenylquinone. From the dose-dependent decrease in writhing reactions as compared with groups of animals tested in parallel to which no compounds according to the invention had been administered, the ED50 values for the writhing reaction were calculated using regression analysis (evaluation programme Martens EDV service, Eckental).

δ-opiate receptor = target: T1, δ-opiate receptor (Rattus norvegicus, UniProt P33533); assay: δ-opiate receptor bonding test ((3H)-2-D-ala-deltorphin II displacement); format: binding, rat (male Wistar); settings: rat brain membrane homogenate, 1 nmol/l (3H)-2-D-ala-deltorphin II, 90 min at 37° C., pH 7.4; mean ± standard deviation of 3 independent trials
T1 construct: performed in brain membrane homogenates; from tissue; host or cells: rat brain without cerebellum, pons and medulla oblongata, male Wistar rats (membrane homogenate)
T1 sequence (P33533 whole entry): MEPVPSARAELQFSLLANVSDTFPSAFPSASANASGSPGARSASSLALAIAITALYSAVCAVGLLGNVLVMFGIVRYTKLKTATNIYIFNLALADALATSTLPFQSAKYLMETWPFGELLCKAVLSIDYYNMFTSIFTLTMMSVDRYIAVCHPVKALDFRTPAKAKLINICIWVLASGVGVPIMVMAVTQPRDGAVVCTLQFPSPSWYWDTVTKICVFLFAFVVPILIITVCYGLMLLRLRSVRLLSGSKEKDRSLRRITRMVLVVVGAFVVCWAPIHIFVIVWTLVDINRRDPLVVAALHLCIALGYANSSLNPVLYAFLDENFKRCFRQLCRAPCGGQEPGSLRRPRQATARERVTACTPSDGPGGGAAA
Protocol: Tests on determining the affinity of compounds of the formula I according to the invention for the δ-opiate receptor were performed in brain membrane homogenates (homogenate from rat brain without the cerebellum, pons and medulla oblongata from male Wistar rats). In this case, freshly prepared rat brain was homogenised each time, cooled by ice, in 50 mmol/l of tris-HCl (tris-(hydroxymethyl)-aminomethane hydrochloride) (pH 7.4) and centrifuged for 10 min at 5,000 g and 4° C. After decanting and discarding the supernatant liquid, the membrane sediment was again taken up in 50 mmol/l of tris-HCl (pH 7.4) and homogenised and the homogenate was then centrifuged for 20 min at 20,000 g and 4° C. This wash stage was repeated once more. Then the supernatant liquid was decanted and the membrane sediment was homogenised in cold 50 mmol/l tris-HCl, 20% glycerol (w:v), 0.01% bacitracin (w/v) (pH 7.4) and frozen in portions until tested. For the receptor bonding tests, the portions were thawed out and diluted 1:10 with the bonding test buffer. A 50 mmol/l tris-HCl, 5 mmol/l MgCl2 (pH 7.4) supplemented with 0.1% (w:v) of bovine serum albumin was used as buffer, and 1 nmol/l of (^3 H)-2-D-ala-deltorphin II was used as a radioactive ligand in the bonding test. The proportion of non-specific bonding was determined in the presence of […] of naloxon. In further batches, the compounds according to the invention were added in a number of concentrations and the displacement of the radioactive ligand from its specific bond was determined. Three identical batches were incubated for 90 min at 37° C. and then harvested in order to determine the radioactive ligand bonded to the membrane homogenate by means of filtration through a glass fibre filter (GF/B). The radioactivity of the glass fibre filter discs was measured in a beta-counter by adding a scintillator. The affinity of compounds according to the invention for the δ-opiate receptor was calculated as IC50 in accordance with the law of mass action using non-linear regression. The K values in table 1 are given as the average value plus or minus the standard deviation of 3 quite independent trials.

SMILES	ED50 [1] [mg/kg]	Ki (δ-opiate receptor) [nM]
CN(C)CC1=C(c2cccc(O)c2)CC(c2ccc(O)c(F)c2)CCC1.Cl (stereo not drawn) [Example 2i, 3-[2-dimethylaminomethyl-6-(3-fluoro-4-hydroxyphenyl)-cyclohept-1-enyl]-phenol hydrochloride]	0.89	14.6 ± 2.2
CN(C)CC1=C(c2cccc(O)c2)CC(c2ccc(Cl)cc2)CCC1.Cl (stereo not drawn) [Example 2a, 3-[6-(4-chlorophenyl)-2-dimethylaminomethyl-cyclohept-1-enyl]-phenol hydrochloride]	7.4	30.3 ± 4.7
CN(C)CC1=C(c2cccc(O)c2)CC(c2ccc(O)cc2)CCC1.Cl (stereo not drawn) [Example 2e, 3-[2-dimethylaminomethyl-6-(4-hydroxyphenyl)-cyclohept-1-enyl]-phenol hydrochloride]	2.25	15.2 ± 4.3
CN(C)CC1=C(c2cccc(O)c2)CC(c2ccc3cc(O)ccc3c2)CCC1 (stereo not drawn) [Example 2h, hydrochloride]	6.22	19.4 ± 4.7
CN(C)CC1=C(c2cccc(O)c2)CC(c2ccccc2O)CCC1 (stereo not drawn) [Example 2j, 3-[2-dimethylaminomethyl-6-(2-hydroxyphenyl)-cyclohept-1-enyl]-phenol hydrochloride]	–	24.7 ± 3.1
CN(C)CC1=C(c2cccc(O)c2)CC(c2ccc3ccccc3c2)CCC1.Cl (stereo not drawn) [Example 2d, 3-(2-dimethylaminomethyl-6-naphth-2-yl-cyclohept-1-enyl]-phenol hydrochloride]	7.56	31.5 ± 5.9
Cc1cc(C2CCCC(CN(C)C)=C(c3cccc(O)c3)C2)cc(C)c1O (stereo not drawn) [Example 2p, 3-[2-dimethylaminomethyl)-6-(3,5-dimethyl-4-hydroxyphenyl)-cyclohept-1-enyl]-phenol hydrochloride]	–	2.5
CN(C)CC1=C(c2cccc(O)c2)CC(Cc2cccc(O)c2)CCC1 (stereo not drawn) [Example 2n, 3-[2-dimethylaminomethyl)-6-(3-hydroxybenzyl)-cyclohept-1-enyl]-phenol hydrochloride]	–	7.4 ± 2.2
CN(C)CC1=C(c2cccc(O)c2)CC(CCc2ccccc2)CCC1 (stereo not drawn) [Example 2o, 3-(2-dimethylaminomethyl-6-phenethyl-cyclohept-1-enyl)-phenol hydrochloride]	–	30.6 ± 10.5
CN(C)CC1=C(c2cccc(O)c2)CC(CC2CCCCC2)CCC1 (stereo not drawn) [Example 2l, 3-(6-cyclohexylmethyl-2-dimethylaminomethyl-cyclohept-1-enyl)-phenol hydrochloride]	–	28.6 ± 5.8
Cc1cccc(C2CCCC(CN(C)C)=C(c3cccc(O)c3)C2)c1 (stereo not drawn) [Example 2f, 3-(2-dimethylaminomethyl-6-m-toluyl-cyclohept-1-enyl]-phenol hydrochloride]	–	3.2 ± 0.8
CN(C)CC1=C(c2cccc(O)c2)CC(Cc2ccccc2)CCC1 (stereo not drawn) [Example 2m, 3-(6-benzyl-2-dimethylaminomethyl-cyclohept-1-enyl)-phenol hydrochloride]	–	10.2 ± 1
CN(C)CC1=C(c2cccc(O)c2)CC(c2cccc(O)c2)CCC1.Cl (stereo not drawn) [Example 1, 3-[2-dimethylaminomethyl-6-(3-hydroxyphenyl)-cyclohept-1-enyl]-phenol hydrochloride]	3.31	1.4 ± 0.8
CN(C)CC1=C(c2cccc(O)c2)CC(c2cccc(C(C)(C)C)c2)CCC1 (stereo not drawn) [Example 2g, 3-[6-(3-tert-butyl-phenyl)-2-dimethylaminomethyl-cyclohept-1-enyl]-phenol hydrochloride]	–	17.5 ± 5.2
CN(C)CC1=C(c2cccc(O)c2)CC(c2ccccc2)CCC1.Cl (stereo not drawn) [Example 2b, 3-(2-dimethylaminomethyl-6-phenyl-cyclohept-1-enyl)-phenol hydrochloride]	4.48	3.8 ± 0.2
CN(C)CC1=C(c2cccc(O)c2)CC(C2CCCCC2)CCC1 (stereo not drawn) [Example 2k, 3-(6-cyclohexyl-2-dimethylaminomethyl-cyclohept-1-enyl)-phenol hydrochloride]	–	10.3 ± 2.2
CN(C)CC1=C(c2cccc(O)c2)CC(c2cccc3ccccc23)CCC1.Cl (stereo not drawn) [Example 2c, 3-(2-dimethylaminomethyl-6-naphth-1-yl-cyclohept-1-enyl)-phenol hydrochloride]	5.29	24.7 ± 2.4
CN(CCc1ccccc1)CC1=C(c2cccc(O)c2)CC(c2ccccc2)CCC1.Cl (stereo not drawn) [Example 3, 3-{2-[(methylphenethylamino)-methyl]-6-phenyl-cyclohept-1-enyl}-phenol hydrochloride]	3.4	8.3 ± 3.3

Source: patent US6323369A, “Substituted cycloheptenes, their preparation and use” (Gruenenthal GmbH, priority 1998, dated 2001)
